Laboratory results taken from patent US9956157B2, “Composition containing fucosterol for skin whitening or moisturizing” (INDUSTRY-ACADEMIC COOPERATION FOUNDATION, YONSEI UNIVERSITY, priority 2014, dated 2018).

Tests used:
Assay type in all cases: cell-based
loricrin [1] = assay: Loricrin protein expression (western blot) in HaCaT human keratinocytes; details: HaCaT cells, fucosterol 5, 10, 20 μM, 24 hrs, FIG. 10
Procedure: (§1) HaCaT human keratinocytes were incubated in a Dulbecco's Modified Eagle's Media (DMEM) medium including 10% fetal bovine serum and then put in a 6-well plate with 2×10^5 cell/ml (the final volume of 3 ml). After being incubated for 24 hrs, the medium was removed and fucosterol which was dissolved in the DMEM medium was treated at 5, 10, and 20 μM concentrations, respectively. After 24 hrs, the HaCaT human keratinocytes were lysed with a NP40 buffer solution including proteinase inhibitor cocktail. The protein amount extracted from the HaCaT human keratinocytes was quantified by using a Bradford method. The sample was boiled for 5 min and then the same amount of protein ([…]) was isolated by electrophoresis with 10% SDS-PAGE. The isolated proteins after electrophoresis were transferred to a nitrocellular membrane and western blot was performed. A primary antibody was reacted and the nitrocellular membrane was washed three times by using Tris-buffer saline tween20 (TBST) for 10 min. In this case, the kind and the dilution of the primary antibody used in the present invention is 1:1000. In a secondary antibody reaction, a secondary antibody was put in the membrane performing the primary antibody reaction and reacted for 2 hrs at room temperature. In this case, a dilution of the secondary antibody was 1:5000. […]

caspase 14 = assay: Caspase 14 mRNA expression (RT-PCR) in HaCaT human keratinocytes; details: HaCaT cells, fucosterol 5, 10, 20 μM, 24 hrs, FIG. 11
Procedure: (§2) HaCaT human keratinocytes were incubated in a Dulbecco's Modified Eagle's Media (DMEM) medium including 10% fetal bovine serum and then put in a 6-well plate with 2×10^5 cell/ml (the final volume of 3 ml). After being incubated for 24 hrs, the medium was removed and fucosterol which was dissolved in the DMEM medium was treated at 5, 10, and 20 μM concentrations, respectively. After 24 hrs, the total RNA was collected by using a TRIzol reagent (Invitrogen, Carlsbad, Calif., USA) and reverse-transcribed and then a reverse transcription-polymerase chain reaction (RT-PCR) analysis was performed below. First, for cDNA synthesis, the RNA was reverse-transcribed by reverse transcriptase. The RT-PCR was performed by specific primers below and the result was illustrated in FIG. 11.

transglutaminase = assay: Transglutaminase mRNA expression (RT-PCR) in HaCaT human keratinocytes; details: HaCaT cells, fucosterol 5, 10, 20 μM, 24 hrs, FIG. 9
Procedure: HaCaT human keratinocytes were incubated in a Dulbecco's Modified Eagle's Media (DMEM) medium including 10% fetal bovine serum and then put in a 6-well plate with 2×10^5 cell/ml (the final volume of 3 ml). After being incubated for 24 hrs, the medium was removed and fucosterol which was dissolved in the DMEM medium was treated at 5, 10, and 20 μM concentrations, respectively. After 24 hrs, the total RNA was collected by using a TRIzol reagent (Invitrogen, Carlsbad, Calif., USA) and reverse-transcribed and then a reverse transcription-polymerase chain reaction (RT-PCR) analysis was performed below. First, for cDNA synthesis, the RNA was reverse-transcribed by reverse transcriptase. The RT-PCR was performed by specific primers below and the result was illustrated in FIG. 9.

loricrin [2] = assay: Loricrin mRNA expression (RT-PCR) in HaCaT human keratinocytes; details: HaCaT cells, fucosterol 5, 10, 20 μM, 24 hrs, FIG. 9
Procedure: as §2, with “9.” for “11.”

filaggrin = assay: Filaggrin protein expression (western blot) in HaCaT human keratinocytes; details: HaCaT cells, fucosterol 5, 10, 20 μM, 24 hrs, FIG. 12
Procedure: as §1

B16F10 melanoma cells = assay: MTT cytotoxicity in B16F10 melanoma cells; details: concentration of 0 to 20 μM, 48 hrs, FIG. 1
Procedure: B16F10 melanoma cells were incubated a dulbecco's modified eagle's media (DMEM) medium including 10% fetal bovine serum and then added in a 24-well plate with 2.5×10^4 cell/mL (the final volume of 1 mL). Fucosterol of 0.1, 1, 5, 10, and 20 μM was treated in the B16F10 melanoma cells, respectively. After treatment of 48 hrs, the medium was removed and a 0.5 mg/mL MTT solution was put in each well by 0.3 mL and the B16F10 melanoma cells were incubated in an incubator for 4 hrs. After 4 hrs, the MTT solution was removed and generated formazan was dissolved by adding dimetyl sulfoxide (DMSO) and then absorbance was measured at 570 nm and the result was illustrated in FIG. 1.

SMILES: C/C=C(\CC[C@@H](C)[C@H]1CC[C@H]2[C@@H]3CC=C4C[C@@H](O)CC[C@]4(C)[C@H]3CC[C@]12C)C(C)C [fucosterol]
- protein expression of loricrin (loricrin [1]): increased
- mRNA expression of caspase 14 (caspase 14): increased
- mRNA expression of transglutaminase (transglutaminase): increased
- mRNA expression of loricrin (loricrin [2]): increased
- protein expression of filaggrin (filaggrin): increased
- cytotoxicity (MTT) (B16F10 melanoma cells): the cytotoxicity was not shown
